Results: PubChem BioAssay (NCI)
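Interpolation was linear, between the two tested concentrations surrounding the appropriate level; five concentrations were tested over 48 hours in 96-well plates. GI50 is the concentration that inhibits growth by half. Definition used: TGI = concentration required for complete inhibition of growth.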

What was measured:
Assay in all cases: NCI anticancer screen, dose series, 48 h
MOLT-4 leukemia = tested on: MOLT-4 leukemia
HL-60(TB) leukemia = tested on: HL-60(TB) leukemia
IGROV1 ovarian = tested on: IGROV1 ovarian
A498 renal = tested on: A498 renal
HOP-62 NSCLC = tested on: HOP-62 NSCLC
RPMI-8226 leukemia = tested on: RPMI-8226 leukemia
K-562 leukemia = tested on: K-562 leukemia
HT29 colon = tested on: HT29 colon
SK-MEL-5 melanoma = tested on: SK-MEL-5 melanoma
CCRF-CEM leukemia = tested on: CCRF-CEM leukemia

Row | Structure (SMILES) | TGI (MOLT-4 leukemia) [µM] | TGI (HL-60(TB) leukemia) [µM] | TGI (IGROV1 ovarian) [µM] | TGI (A498 renal) [µM] | TGI (HOP-62 NSCLC) [µM] | TGI (RPMI-8226 leukemia) [µM] | TGI (K-562 leukemia) [µM] | TGI (HT29 colon) [µM] | TGI (SK-MEL-5 melanoma) [µM] | TGI (CCRF-CEM leukemia) [µM] | GI50 (MOLT-4 leukemia) [µM] | GI50 (HL-60(TB) leukemia) [µM] | GI50 (IGROV1 ovarian) [µM] | GI50 (A498 renal) [µM] | GI50 (RPMI-8226 leukemia) [µM] | GI50 (K-562 leukemia) [µM] | GI50 (HT29 colon) [µM] | GI50 (SK-MEL-5 melanoma) [µM] | GI50 (CCRF-CEM leukemia) [µM]
1 | CC[C@]12C=CCN3CC[C@@]4(c5cc(Br)c(OC)cc5N(C)[C@H]4[C@@](O)(C(=O)N[C@@H](Cc4ccc(O)cc4)C(=O)OC)[C@@H]1O)[C@@H]32 | 62.3 | 57.8 | 73.3 | 40.8 | > 100 | 36 | > 100 | 30 | 31.4 | 44 |  |  |  |  |  |  |  |  | 
2 | C[C@]12CC[C@H](O)CC1=CC[C@@H]1[C@@H]2CC[C@]2(C)C(=N/O)/C(=C/c3ccc([N+](=O)[O-])cc3)C[C@@H]12 | 20.5 | 25 | 26.7 | 11.7 | 21.1 | 50.6 | 59.9 | 23.5 | 3.32 | > 100 |  |  |  |  |  |  |  |  | 
3 | O=C(c1cc2c(c3ccccc13)NCCN=C2C(F)(F)F)C(F)(F)F | 38 | 75.4 | > 100 | 40.3 | 53 | 27.4 | 35.4 | 33.1 | 31 | > 100 |  |  |  |  |  |  |  |  | 
4 | CC(=O)NNC(=O)C1CCCCN1 (stereo not given) | > 100 | > 100 | > 100 | > 100 | > 100 | > 100 | > 100 | > 100 | > 100 | > 100 |  |  |  |  |  |  |  |  | 
5 | O=C1C(Cl)C(c2cc3cc(Br)ccc3nc2Cl)N1c1ccc(Cl)cc1 (stereo not given) | 10.6 | 15.5 | 7.17 | > 25 | > 25 | 14.1 | 19.8 | 19.6 | 6.38 | 11.4 |  |  |  |  |  |  |  |  | 
6 | O=C(COc1ccc(Cl)c(Cl)c1)N(Cc1ccccc1)Cc1ccc[n+](Cc2ccc(Cl)cc2S(=O)(=O)F)c1 | 54.8 | 94.5 | > 100 | > 100 | > 100 | 28.4 | > 100 | > 100 | 64.7 |  |  |  |  |  |  |  |  |  | 
7 | CC(C)(C)OC(=O)NC1CCC(C(C)(C)C)CC1 (stereo not given) | 67.2 | 36.1 | > 100 | > 100 | > 100 | > 100 | > 100 | > 87.3 | > 72.4 | > 100 |  |  |  |  |  |  |  |  | 
8 | Br/C(=N\Nc1nn[nH]n1)c1ccncc1 | > 100 | > 100 | > 100 | > 100 | > 100 | > 100 | > 100 | > 100 | > 100 | > 100 |  |  |  |  |  |  |  |  | 
9 | CCCC(=O)O.CCCC(=O)O.CCCC(=O)O.CCCC(=O)O.[Rh].[Rh] | 0.141 | 0.351 | 0.73 | 0.325 |  | 0.112 | 0.273 | 0.126 | 0.248 | 1.08 | 0.0315 | 0.0448 | 0.189 | 0.151 | 0.0243 | 0.026 | 0.0334 | 0.107 | 0.0277
10 | c1ccc(C[N+]23CN4CN(CN(C4)C2)C3)cc1 | 43.9 | 57.2 | > 100 | > 100 | > 100 | 57.2 | 86.2 | > 100 | 50 | 32.9 |  |  |  |  |  |  |  |  | 
11 | O=C(Oc1ccc(Cl)cc1[N+](=O)[O-])c1ccccc1 | > 100 | > 100 | > 100 | > 100 | > 100 | > 100 | > 100 | > 100 | 36.7 | > 100 |  |  |  |  |  |  |  |  | 
12 | O=C1OC2CC=CC1C2 (stereo not given) | > 100 | > 100 | > 100 | > 100 | > 100 | > 100 | > 100 | > 100 | > 100 | > 100 |  |  |  |  |  |  |  |  | 
13 | Cc1cc(C)nc(SCCc2cccc[n+]2C)n1 | > 100 | > 100 | > 100 | > 100 | > 100 | > 100 | > 100 | > 100 | > 100 | > 100 |  |  |  |  |  |  |  |  | 
14 | COc1cc(S(=O)(=O)Nc2nc(-c3ccc(N4C(=O)/C(=C/c5ccccc5[N+](=O)[O-])N=C4c4ccccc4)cc3)cs2)ccc1Cl | > 100 | > 100 | > 100 | > 100 | > 100 |  | > 100 | > 100 | > 100 | > 100 |  |  |  |  |  |  |  |  | 
15 | COc1c(OC/C=C(\C)CCC=C(C)C)ccc2ccc(=O)oc12 | > 100 | > 100 | > 100 | > 100 | > 100 | > 100 | > 100 | > 100 | > 100 | > 100 |  |  |  |  |  |  |  |  | 
16 | Cl/C(=C\C=Nc1ccc(I)cc1)c1ccc2ccccc2c1 | 13.6 | 44.4 | > 55.7 | > 90 | 40.7 | 56.5 | 31.8 | > 100 | 38.7 | > 25.1 |  |  |  |  |  |  |  |  | 
17 | C=C1C(=O)OC2CC1CCC1(C)OC1CCC(C)=CCCC2(C)O (stereo not given) | 9.2 | 2.62 | 15.8 | 3.52 | 19.4 | 7.18 | 13.7 | 10.7 | 10.2 | 4.56 |  |  |  |  |  |  |  |  | 
18 | Cn1c2c3ccc(Cl)cc3nc-2c(Cl)c2ccccc21 | > 100 | > 100 | 42 | 45.1 | 45.3 | > 100 | > 100 | 49.9 | 42.7 | > 100 |  |  |  |  |  |  |  |  | 
19 | C=CCNS(=O)(=O)c1ncnc2nc[nH]c12 | 41.2 |  | > 100 | > 100 | > 100 | > 100 | > 100 | > 100 | > 100 | > 100 |  |  |  |  |  |  |  |  | 
20 | O=C1OCc2cc3cc4c(cc3c(-c3ccc5c(c3)OCO5)c21)OCO4 (tested in a mixture with another compound) | 72.5 | > 100 | 66.7 | > 100 | 34.9 | > 100 | > 100 | > 100 | 33.6 | > 100 |  |  |  |  |  |  |  |  | 
21 | COc1cc(/C=C/C(=O)CC(=O)/C=C/c2ccc(O)c(OC)c2)ccc1O | 18 | 25 | 26.7 | 33.1 | 19.1 | 6.28 | > 55.6 | 32.4 | 22.5 | 15.6 |  |  |  |  |  |  |  |  | 
22 | O=C(Nc1ccc(Cl)c(Cl)c1)N1N=C2c3ccccc3CCC2C1c1ccc(Cl)cc1 (stereo not given) | > 100 | > 100 | > 100 | > 100 | > 100 | > 100 | > 100 | > 100 | > 100 | > 100 |  |  |  |  |  |  |  |  | 
23 | C=CCSSCC=C | > 100 | 46 | > 100 | > 100 | > 100 | > 80.4 | > 100 | > 100 | > 100 | > 100 |  |  |  |  |  |  |  |  | 
24 | COc1ccc(NC(=S)N/N=C(\C)c2nc3ncccc3[nH]2)cc1 | 43.9 | 65.8 | 53.6 | 98.2 | 59.3 | > 100 | > 100 | > 100 | 29.1 | 24.5 |  |  |  |  |  |  |  |  | 
